We go through 1 compound from PMC10778758, “Dithioethanol (DTE)-Conjugated Deoxyribose Cyclic Dinucleotide Prodrugs (DTE-dCDNs) as STING Agonist” (International Journal of Molecular Sciences, 2023).

Molecules are shown by their SMILES. Values joined by “and” are separate entries in the source; they are usually repeats but may differ in a detail not shown here. Equal entries are not always repeated.

One data set has as its system THP-1 cells. Put plainly: ELISA of IFN-β protein levels in THP-1 culture supernatants. It counts as cell-based, human. Particulars: 4 h. On the procedure: Enzyme-Linked Immunosorbent Assay (ELISA). THP-1 cells were incubated with the compounds for 4 h. Cell culture supernatants were then analyzed via ELISA for human IFN-β levels (ABclonal, Woburn, MA, USA, catalogue no. RK01630) according to the manufacturer’s instructions. […]
(§1) expression levels of IFN-β were assessed by real-time quantitative PCR (qPCR) under the treatment of prodrug 9 (10 μM), 3′,3′-c-di-dAMP (100 μM), 2′,3′-cGAMP (100 μM) and ADU-S100 (10 μM) for 4 h.
Figure S3. Prodrug 9 stimulated the production of IFN-β in THP-1 cells. Under the treatment of prodrug […]
levels of IFN-β were assessed by an enzyme-linked immunosorbent assay (ELISA).
(also on this page, place not known: t reatment -S100 9 3',3'-c-di-dAMPADU-S100 IFN-β/β-actin IFN-β in Culture Medium (pg/ml)) […]

The next data set has as its system CT-26 cells. In words: RT-qPCR of IFN-β mRNA in CT-26 cells. It counts as cell-based. Particulars: CT-26, prodrug 9 and ADU-S100 10 μM, CDNs 100 μM, 4 h. On the procedure:
Real-time quantitative PCR (RT-qPCR). The mRNA expression levels of diverse cytokines were measured using quantitative RT-PCR (RT-qPCR) assays. THP-1 cells or CT26 cells were incubated with the compounds for 4 h, subsequently harvested for RNA isolation according to the manufacturer’s instructions of RNApure Tissue&Cell Kit (DNase I) (CWBIO, Cambridge, MA, USA catalogue no. CW0560S). Next, 1 μg RNA was reversely transcribed to cDNA by TransScript All-in-One First-Strand cDNA Synthesis SuperMix for qPCR (One-Step gDNA Removal) (TransGen, Beijing, China). To examine the mRNA levels, real-time PCR was performed in a CFX96 Real-Time PCR system (Bio-RAD, Hercules, CA, USA) using PerfectStart Green qPCR Super Mix (TransGen) and primers (Sangon Biotech, Shanghai, China). The expression level was calculated according to the formula (2^−∆∆Ct) using the GAPDH or β-actin as the internal reference gene and the relative gene expression fold was normalized to the DMSO-treated cells. The THP-1 and CT26 cell lines were obtained from American Type Culture Collection (ATCC, Manassas, VA, USA). […]
as §1
Figure S3. […]
levels of IFN-β were assessed by an enzyme-linked immunosorbent assay (ELISA). […]
In general terms: Quantitative PCR measures a nucleic acid by following its amplification.

Data set [1] in a line: Release of parent dCDN from prodrug 9 initiated by DTT or GSH (HPLC). Format: in vitro ADME. On the procedure:
(§2) To analyze the reduction dependency, we performed the in vitro cleavage test by incubating prodrug 9 with a reductive substance such as GSH or DTT and cell lysates at 37 °C and then determined the change with HPLC. […] As the reductive substance or cell lysates were added, the peak for prodrug 9 disappeared and the new peaks at 1.2 min appeared in 0.5 h and 2 h, respectively. The released parent dCDN was also confirmed with 3′,3′-c-di-dAMP through UPLC-MS (Figure S1).
Amounts of 10 mM DTT or GSH were added into prodrug 9 (100 μM) in an air-bath incubator at 37 °C for 0.5 h. Afterwards, 10 μL of each mixture was injected into HPLC for analysis. The HPLC methodology was the same as above.
(§3) Figure 3 Parent dCDNs release in GSH, DTT (a), and cell lysates (b). An amount of 100 μM prodrug 9 was added into the 10 mM GSH, 10 mM DTT, and cell lysates for various times (0.5 h and 2 h) at 37 °C and analyzed with HPLC (Agilent 1260, Santa Clara, CA, USA).

In a further data set the test system is THP1-Lucia cells. Put plainly: THP1-Lucia cell-based luciferase reporter assay. On the procedure: THP1-Lucia cell-based reporter assay. THP1-Lucia cells were seeded into a 24-well plate at a density of 5 × 10^4 cells/well. […] Finally, the medium was collected to determine the luciferase activity using QUANTI-Luc (InvivoGen, San Diego, CA, USA) according to the manufacturer′s instruction to calculate the EC50 values of the tested compounds. The results are expressed as the mean ± SD from three independent experiments. Emax values were normalized to the response induced by 2′,3′-cGAMP in each assay and expressed as a mean percentage ± SD from three independent experiments. The THP1-Lucia cell line was obtained from Prof. Junmin Quan from Peking University (Beijing, China).
Figure 5 The luciferase-based assay in the THP1-Lucia reporter cell line. (a) EC50 values represent the mean (±SD) of three independent experiments. (b) Emax values represent the mean (±SD) of three independent experiments.
(In general: A reporter such as luciferase makes a cellular process visible.)

The nature of data set [2]: Release of parent dCDN from prodrug 9 in cell lysates (HPLC). Format: in vitro ADME. Particulars: 100 μM prodrug, 37 °C. As for the experimental part:
as §2
Prodrug 9 release parent drug initiated by cell lysates, DTT, and GSH. HEK 293T cells were plated in a 6-well plate at a density of 10^6 cell per well. After 48 h, the culture media was removed and washed with 500 μL PBS buffer. Cells were collected into 1.5 mL microtubes. An amount of 200 μL weak RIPA lysis buffer containing 1 mM protease inhibitor PMSF (LEAGENE, Trenton, NJ, USA) was added to each tube for 30 min. After centrifugation at 13,000 rpm for 10 min, the supernatant (180 μL) was transferred into a new tube. An amount of 100 μM prodrug 9 was added into the cell lysate (60 μL) in an air-bath incubator at 37 °C. […]
as §3

For the compound `Nc1ncnc2c1ncn2C1CC2OP(=O)(OCCSSc3ccccn3)OCC3OC(n4cnc5c(N)ncnc54)CC3OP(=O)(OCCSSc3ccccn3)OCC2O1` (stereo not shown) [prodrug 9], the “IFN-β protein level, fold compared to 2′,3′-cGAMP” value with THP-1 cells (THP-1, prodrug 9 10 μM vs 2′,3′-cGAMP 100 μM) was “approximately 66 fold”. For the same compound, the “IFN-β protein level, fold compared to 3′,3′-c-di-dAMP” value with THP-1 cells (THP-1, prodrug 9 10 μM vs 3′,3′-c-di-dAMP 100 μM) is roughly 4.3 fold. The “IFN-β protein level, fold compared to ADU-S100” value with THP-1 cells (THP-1, prodrug 9 10 μM vs ADU-S100 10 μM) is roughly 5.6 fold. Further, in the data set on CT-26 cells, the “induction of IFN-β transcription in CT-26 cells” value was “did not”. Besides, the “time at which prodrug peak disappeared and parent dCDN peak appeared” value in data set [1] (100 μM prodrug, 10 mM GSH or DTT, 37 °C) was determined as 0.5 h. Further, the “time to decompose and release the parent dCDN” value in data set [1] (reductive substance GSH or DTT) was 30 min. In addition, in the data set with THP1-Lucia cells, the “fold activity (EC50) vs 3′,3′-c-di-dAMP” value is given as roughly 43 fold; the “fold activity (EC50) vs ADU-S100” value was ~3.0 fold and 3 fold; the “maximum activation fold (Emax) relative to 2′,3′-cGAMP” value is recorded as “approximately 1.8 fold”; the “maximum activation fold (Emax) relative to 3′,3′-c-di-dAMP” value is listed as roughly 1.9 fold. The “maximum activation fold (Emax) relative to ADU-S100” value in the data set on THP1-Lucia cells is reported as roughly 1.4 fold. Also, the EC50 in the data set with THP1-Lucia cells (24 h) is 0.96 µM. For the same compound, the “time at which prodrug peak disappeared and parent dCDN peak appeared” value in data set [2] was found to be 2 h.

As a reminder, the EC50 is the concentration needed to bring the measured effect to its halfway point. A high value points to weaker potency.
